Data: patent US7202235B2, “Tetracycline compounds for treatment of cryptosporidium parvum related disorders” (Trustees of Tufts College, priority 2000, dated 2007)

System: Cryptosporidium parvum
Test: Assay for the ability of tetracycline compounds to control Cryptosporidium parvum infection in vitro (indirect immunofluorescence parasite count)
Type: cell-based
Conditions: C. parvum GCH1 oocysts in MDCK/MDBK cell monolayers, 48 hour incubation, IF parasite count, class by concentration giving 70% inhibition
Description: This assay is designed to test the ability of a tetracycline compound to control Cryptosporidium parvum infection in vitro. […] MDCK cells were grown in 96-well microtiter plastic plates, and were seeded with approximately 5×10^4 cells per well, using DMEM as the growth/maintenance medium with 10% FCS. Plates were normally grown to confluence 2–3 days after having been seeded with bleached, less than four week-old, C. parvum oocysts. The C. parvum isolate used most often was the human-derived, calf-propagated GCH1 (Tzipori, Clin. Diagn. Lab. Immunol. (1994) 1:450; Tzipori, J. Infect. Dis. (1995) 172:1160). The DMEM medium was also added to the negative control wells. The tetracycline compounds and the oocysts were added to the wells concurrently. The cells were subsequently monitored twice daily and any apparent morphologic changes were recorded. The monolayers were fixed with methanol after 48 hour incubation at 37° C. in 8% CO2. […] The tetracycline compounds were used at various concentrations (0.1–2000 μg/mL) and were dissolved directly into the culture medium. A conventional indirect immunofluorecensce (IF) assay was used to detect and enumerate parasite forms after 48-hour incubation. For the purposes of this assay, a polyclonal rabbit anti-sporozoite antibody was produced. […] The secondary antibody, a fluoroscein-conjugated goat anti-rabbit IgG, was used at a concentration of 1:100, according the manufacturer's instructions. The primary antibody was added after fixation for thirty minutes and after vigorous washing, the secondary antibody was incubated for another thirty minutes. The dried microtiter plate was viewed with an inverted microscope (x10 mag.), under ultraviolet light. For parasite counts, a semi-automated video imaging MCID system was used to facilitate the enumeration and analysis of the parasite data. In Table 1, good inhibition of C. parvum is indicated by ‘*’ (e.g., 70% inhibition at concentrations above 10 μg/ml and above) and very good inhibition of C. parvum is indicated by ‘**’ (e.g., 70% inhibition at concentrations below 10 μg/ml).

**Q.** For `CCC(=O)O[C@H]1C2C(=C(O)[C@]3(O)C(=O)C(C(N)=O)=C(O)[C@@H](N(C)C)C13)C(=O)c1c(O)cccc1[C@@H]2CSC1CCCC1` (some centres unmarked), which IC70 is on record?
**A.** The IC70 was < 10 µg/mL.

**Q.** How did the IC70 turn out when `CN(C)[C@@H]1C(O)=C(C(N)=O)C(=O)[C@@]2(O)C(O)=C3C(=O)c4c(O)cccc4[C@H](CSC4CCCC4)C3[C@H](O)C12` (some centres unmarked) was run?
**A.** The IC70 was < 10 µg/mL.

**Q.** For `CCC(=O)O[C@H]1C2C(=C(O)[C@]3(O)C(=O)C(C(N)=O)=C(O)[C@@H](N(C)C)C13)C(=O)c1c(ccc(C(C)(C)C)c1O)[C@@H]2C` (some centres unmarked), which IC70 is on record?
**A.** The IC70 was ≥ 10 µg/mL.

**Q.** Which IC70 does the source give for `CN(C)[C@@H]1C(O)=C(C(N)=O)C(=O)[C@@]2(O)C(O)=C3C(=O)c4c(O)cccc4SC3[C@H](O)C12` (some centres unmarked) here?
**A.** The IC70 was ≥ 10 µg/mL.

**Q.** Which IC70 does the source give for `C[C@H]1c2ccc(C3=CCCC3)c(O)c2C(=O)C2=C(O)[C@]3(O)C(=O)C(C(N)=O)=C(O)[C@@H](N(C)C)C3[C@@H](O)C21` (some centres unmarked) here?
**A.** The IC70 was < 10 µg/mL.

**Q.** With `C[C@H]1c2cccc(O)c2C(=O)C2=C(O)[C@]3(O)C(=O)C(C(N)=O)=C(O)[C@@H](N(C)C)C3[C@@H](O)C21` (some centres unmarked) as the compound, how does the IC70 read?
**A.** Its IC70 is ≥ 10 µg/mL.

**Q.** Which IC70 does the source give for `C[C@H]1c2ccc(C(C)(C)C)c(O)c2C(=O)C2=C(O)[C@]3(O)C(=O)C(C(N)=O)=C(O)[C@@H](N(C)C)C3[C@@H](O)C21` (some centres unmarked) here?
**A.** Its IC70 is < 10 µg/mL.

**Q.** `CN(C)c1cc(C#CC2=CCCCC2)c(O)c2c1CC1CC3[C@H](N(C)C)C(O)=C(C(N)=O)C(=O)[C@@]3(O)C(O)=C1C2=O` (some centres unmarked) was tested. Which IC70 did it give?
**A.** Its IC70 is < 10 µg/mL.
